Laboratory results reported in patent US20030044800A1, “Drug discovery employing calorimetric target triage” (priority 2000, published 2003).

Tests used:
hexokinase = assay: Calorimetric deconvolution of a cofactor mixture with hexokinase and glucose; assay type: biochemical; conditions: 5 μL of 20 μM hexokinase into 100 μM glucose and cofactors at 1 mM
Procedure: Hexokinase and glucose were present in each test. Various mixtures of cofactors were added to each test. Only when ATP was present in the mixture was a significant amount of heat generated. 5 μL injections of a 20 μM solution of hexokinase were titrated into a solution of 100 μM glucose and one or more “cofactors”, all at 1 mM concentration. In the initial experiment with the entire library of 15 cofactors present, enzymatic turnover was observed (as in FIG. 12a(ii)). We were then able to successfully separate out the cofactors in subsequent experiments to determine which one was actually necessary to allow the hexokinase to turn over the glucose. […] Only tiny heats of dilution are observed when ATP is absent;

E. coli protein YJEQ = E. coli protein YJEQ (Escherichia coli, UniProt P39286); assay: Calorimetric titration of GTP-gamma-S into E. coli protein YJEQ; assay type: binding; conditions: 5 μL injections of 11 mM GTP-gamma-S into 2 mL of 385 μM protein
Procedure: 5 μL injections of an 11 mM GTP-gamma-S solution were titrated into 2 mL of a solution containing 385 μM of an E. coli protein for which no function was previously known.

heat on injection of hexokinase (cofactor needed for turnover of glucose) (hexokinase)	SMILES	Kd (E. coli protein YJEQ)
large negative heat	Nc1ncnc2c1ncn2[C@@H]1O[C@H](COP(=O)(O)OP(=O)(O)OP(=O)(O)O)[C@@H](O)[C@H]1O [ATP]	
	Nc1nc2c(ncn2[C@@H]2O[C@H](COP(=O)(O)OP(=O)(O)OP(O)(O)=S)[C@@H](O)[C@H]2O)c(=O)[nH]1 [GTP-gamma-S]	115 µM
